Measurements published in patent US20220331286A1, “CANNABIS LIMITS CANCER STEM CELL GROWTH IN POORLY DIFF[…]” (The Regents of the University of California, priority 2021, published 2022).
Entries after “also recorded” stand apart in the source; their conditions may differ.

What was measured:
breast cancer cell lines = conditions: not normal breast epithelium; cited from earlier work
[1] = test system: Oral squamous carcinoma cells (OSCCs); test: Viable cell count (Trypan Blue) after treatment; assay type: cell-based, human; conditions: for killing / decrease in cell numbers of OSCCs, in words: WIN 55,212-2 10, 25, 50, 100 μM, CDDP 50 μg/ml
Method: (§1) Oral squamous carcinoma cells (OSCCs) and oral squamous carcinoma stem cells (OSCSCs) were isolated from cancer patients with tongue tumors at UCLA. The cells were cultured in RPMI 1640 complete medium with 10% fetal bovine serum (FBS) 1.4% Antibiotic-Antimycotic, 1% sodium pyruvate, 1.4% non-essential amino acids, 1% L-glutamine, 0.2% gentamicin (Gemini Bio-Products, CA, USA), and 0.15% sodium bicarbonate (Fisher Scientific, PA, USA).
(§2) As shown in FIG. 1A-1E, OSCSCs are affected more by WIN 55,212-2 than OSCCs. Both OSCCs (oral squamous carcinoma cells) and OSCSCs (oral squamous carcinoma stem cells) were treated with various concentrations of WIN 55,212-2 (10, 25, 50, and 100 μM) and CDDP (50 μg/ml), and the cell numbers were determined after 24 hours of treatment.
(§3) RPMI 1640 (Gibco, Thermo Fisher Scientific, USA) complete medium with 10% fetal bovine serum (FBS) (Gemini Bio-Products, San Diego, Calif., USA), 1.4% of non-essential amino acid (Gibco, Thermo Fisher Scientific, USA), 1.4% sodium pyruvate (Gibco, Thermo Fisher Scientific, USA), 0,15% of sodium bicarbonate (Fisher Scientific, Waltham, Mass., USA) and 1% antibiotics/antimycotics (Gemini Bio-Products, San Diego, Calif., USA) was used for oral tumor culture. DMEM (Gibco, Thermo Fisher Scientific, USA) supplemented with 10% FBS and 1% antibiotics/antimycotics was used for pancreatic tumor cell culture. Oral squamous carcinoma cells (OSCCs) and oral squamous carcinoma stem cells (OSCSCs) were isolated from cancer patients with tongue tumor at UCLA. Human pancreatic cancer cell lines MIA PaCa-2 (MP2) and PL-12 were generously provided by Dr. Guido Eibl (UCLA David Geffen School of Medicine) and by Dr. Nicholas Cacalano (UCLA Jonsson Comprehensive Cancer Center), respectively. […] CDDP was purchased from Ronald Reagan UCLA Medical Center Pharmacy. […] TNF-α and IFN-γ were purchased from Peprotech (Rockyhill, N.J.).
(§4) The number of viable cells was counted under light microscope using Trypan Blue staining (Sigma, Mo., USA).

[2] = test system: oral squamous carcinoma stem cells (OSCSCs); test: Viable cell count (Trypan Blue) after treatment; assay type: cell-based, human; conditions: WIN 55,212-2 10, 25, 50, 100 μM, CDDP 50 μg/ml, 24 hours
Method: as §1, §2, §3, §4

[3] = test system: PL-12 well-differentiated pancreatic tumor cells; test: Viable cell count (Trypan Blue) after treatment; assay type: cell-based, human; conditions: for percent decrease in cell numbers of PL12, in words: various concentrations of WIN 55,212-2, CDDP 50 μg/ml
Excerpt: (§5) Six different pancreatic tumor cell lines each characterized at poorly, intermediate and well differentiated stages pathologically by other laboratories previously were used to determine phenotype, susceptibility to NK cell-mediated cytotoxicity and secretion of IFN-γ directly correlating with the differentiation stages of the tumors. […] Furthermore, the stage of differentiation of the tumors was correlated with sensitivity to NK cell mediated cytotoxicity in pancreatic tumor cells. […] Therefore, a direct correlation between augmented sensitivity to NK-mediated lysis and poor differentiation of pancreatic tumors was evident from these experiments. For the following experiments MP2 and PL12 were used as representative tumor types for poorly differentiated and well differentiated tumors respectively. Human pancreatic cancer cell line MIA PaCa-2 (MP2), was provided by Dr. Guido Eibl (UCLA David Geffen School of Medicine) and PL12 was provided by Dr. Nicholas Cacalano (UCLA Jonsson Comprehensive Cancer Center). MP2 tumors were cultured with DMEM in supplement with 10% FBS and 1% Penicillin-Streptomycin (Gemini Bio-Products, CA). PL12 pancreatic tumors were cultured in RMPI 1640 medium supplemented with 10% FBS and 1% penicillin-streptomycin.
as §3, §4

[4] = test system: Oral squamous carcinoma cells (OSCCs); test: Cell death by propidium iodide staining and flow cytometry; assay type: cell-based, human; conditions: 24 hours
Method: (§6) After an overnight incubation the cells were washed twice and stained with propidium iodide (PI) at a concentration of 3 μg/ml. Flow cytometric analysis was performed using Attune flow cytometer results were analyzed using FlowJo vX software (Ashland, Oreg.).

[5] = test system: PL-12 well-differentiated pancreatic tumor cells; test: as above; assay type: cell-based, human
Excerpt: (§7) Propidium iodide (PI) staining was used to determine the cell death by flow cytometry.

[6] = test system: Oral squamous carcinoma cells (OSCCs); test: Microscopy of cell morphology and viability; assay type: cell-based, human
[7] = test system: oral squamous carcinoma stem cells (OSCSCs); test: Microscopy of cell morphology and viability; assay type: cell-based, human; conditions: WIN 55,212-2 even at the lowest concentrations; CDDP 50 μg/mL; 24 h
[8] = test system: PL-12 well-differentiated pancreatic tumor cells; test: Microscopy of cell morphology and viability; assay type: cell-based, human; conditions: different concentrations of WIN 55,212-2; CDDP 50 μg/mL; 24 hours
[9] = test system: MIA PaCa-2 (MP2) poorly differentiated/stem like pancreatic tumor cells; test: Microscopy of cell morphology and viability; assay type: cell-based, human; conditions: different concentrations of WIN 55,212-2; CDDP 50 μg/mL; 24 hours
[10] = test system: MIA PaCa-2 (MP2) poorly differentiated/stem like pancreatic tumor cells; test: Viable cell count (Trypan Blue) after treatment; assay type: cell-based, human
Excerpt: as §5, §3, §4

[11] = test system: oral squamous carcinoma stem cells (OSCSCs); test: Cell death by propidium iodide staining and flow cytometry; assay type: cell-based, human
Method: as §6

[12] = test system: MIA PaCa-2 (MP2) poorly differentiated/stem like pancreatic tumor cells; test: as above; assay type: cell-based, human
Excerpt: as §7

tumor = test: Cytostatic effect: tumor-cell coverage of the well-plate (FIG. 2); assay type: cell-based; conditions: at higher concentrations (FIG. 2)
Excerpt: In FIG. 2, the cystostatic effect of WIN 55,212-2 are shown.

[13] = test system: Oral squamous carcinoma cells (OSCCs)
[14] = test system: oral squamous carcinoma stem cells (OSCSCs)
[15] = test system: PL-12 well-differentiated pancreatic tumor cells; conditions: WIN 55,212-2, 48 h; mesylate
[16] = test system: MIA PaCa-2 (MP2) poorly differentiated/stem like pancreatic tumor cells
[17] = test system: mouse models of breast cancer, non-small cell lung cancer, and non-melanoma skin cancer; conditions: cited from earlier work
[18] = WIN 55,212-2 50 μM or higher, CDDP 50 μg/mL, 24 h
[19] = different concentrations of WIN 55,212-2, dose-dependent, 24-48 hours
[20] = WIN 55,212-2 25-100 μM, 24-48 hours
[21] = WIN 55,212-2 (5-50 μM), 24 hours, vs untreated control, mesylate
[22] = various concentrations of WIN 55,212-2, 24 hours and 48 hours (FIG. 4A-4B)
[23] = WIN 55,212-2 (5-50 μM), 24 hours, mesylate

SMILES: C=C(C)[C@@H]1CCC(C)=C[C@H]1c1c(O)cc(CCCCC)cc1O [CBD, Cannabidiol]
- effect on radiotherapy / anti-proliferative effects of radiation (breast cancer cell lines): failed to enhance anti-proliferative effects of radiation

SMILES: N.N.[Cl][Pt][Cl] [CDDP, cis-diaminedichloridoplatinum (II)]
- inhibition of cell growth, OSCCs compared with OSCSCs ([1]; CDDP 50 μg/mL, 24 h): inhibit cell growth of OSCCs more than those seen with OSCSCs
- killing / decrease in cell numbers of OSCCs, in words ([1]; 24 hours): killed significantly; also recorded: greater decreases in cell numbers
- killing / decrease in cell numbers of OSCSCs, in words [2]: not killed
- percent decrease in cell numbers of PL12, in words [3]: greater decrease in cell numbers
- cell death in OSCCs compared with OSCSCs (PI staining) ([4]; CDDP 50 μg/mL): significant cell death in OSCCs when compared to OSCSCs; also recorded: more cell death in OSCCs when compared to OSCSCs
- cell death in PL-12 compared with MP2 (PI staining) ([5]; CDDP 50 μg/mL): higher in PL-12 in the representative experiment (FIG. 16B) and similar in compiled data
- morphology/viability of OSCCs under the microscope [6, 18]: loss of morphology, and the majority were detached from the plates
- morphology/attachment of OSCSCs under the microscope [7]: the majority of these cells were still attached to the cell culture plate
- morphology/viability of PL-12 under the microscope [8]: affected both PL-12 and MP2 morphologically
- morphology/viability of MP2 under the microscope [9]: affected both PL-12 and MP2 morphologically

SMILES: CCCCCc1cc(O)c2c(c1)OC(C)(C)[C@@H]1CCC(C)=C[C@@H]21 [THC, Tetrahydrocannabinol]
- effect on radiotherapy / anti-proliferative effects of radiation (breast cancer cell lines): failed to enhance anti-proliferative effects of radiation

SMILES: CS(=O)(=O)O.Cc1c(C(=O)c2cccc3ccccc23)c2cccc3c2n1[C@H](CN1CCOCC1)CO3 [WIN 55,212-2, (R)-(+)-[2,3-Dihydro-5-methyl-3-(4-morpholinylmethyl)pyrrolo[1,2,3-de]-1,4-benzoxazin-6-yl]-1-naphthalenylmethanone mesylate]
- killing / decrease in cell numbers of OSCCs, in words ([1]; 24 hours, mesylate): much less; also recorded: smaller decrease in cell numbers
- decrease in cell numbers of OSCC (viable cells) ([1]; WIN 55,212-2 10-100 μM, 24 hours): 10-25%
- killing / decrease in cell numbers of OSCSCs, in words ([2]; mesylate): significantly killed; also recorded: significantly greater than OSCCs
- decreased numbers of viable cells, MP2 [10, 19]: 60-85%
- percent decrease in cell numbers of MP2s, in words ([10]; various concentrations of WIN 55,212-2): significantly greater than PL12s
- decreased numbers of viable cells, PL-12 [3, 19]: 50-70%
- percent decrease in cell numbers of PL12, in words [3]: smaller decreases in cell numbers
- cell death in OSCCs (PI staining) ([4]; WIN 55,212-2 75 and 100 μM): up to 10%
- amounts of cell death in OSCSCs compared with those induced by CDDP ([11]; WIN 55,212-2 25-100 μM, compiled data): either similar or higher when compared to those induced by CDDP
- cell death in OSCSCs compared with OSCCs (PI staining) ([11]; all WIN 55,212-2 concentrations tested, 24 hours, mesylate): higher cell death
- percentages of dead cells, MP2 (PI staining) [12, 20]: approximately 30%
- increase in cell death in MP2s compared with PL12 (PI staining) ([12]; various concentrations of WIN 55,212-2, 48 hours): greater higher increase in cell death
- percentages of dead cells, PL-12 (PI staining) [5, 20]: up to 20%
- morphology/viability of OSCCs under the microscope [6, 18]: some of the OSCCs still remained viable but some rounded up and detached and were not viable
- morphology/viability of OSCCs under the microscope ([6]; low concentrations of WIN 55,212-2, 24 h): remained viable
- morphology/attachment of OSCSCs under the microscope [7]: became detached from the culture plates
- morphology/viability of PL-12 under the microscope [8]: maintained their morphology and remained viable
- morphology/viability of MP2 under the microscope [9]: largely lost their shape and morphology, and had detached from the plates
- cytostatic effect (fold change of the tumor-cell coverage of the well-plate) (tumor): arrests the tumor growth
- CD44 cell surface expression, OSCCs [13, 21]: Decreased expression
- CD54 cell surface expression, OSCCs [13, 21]: Decreased expression
- MHC class I cell surface expression, OSCCs [13, 21]: Decreased expression
- PD-L1 (B7H1) cell surface expression, OSCCs [13, 21]: Decreased expression
- MHC class I expression on the cell surface, OSCCs [13, 22]: decreases in MHC class I expression
- CD44 cell surface expression, OSCSCs [14, 23]: decreased expressions
- CD54 cell surface expression, OSCSCs [14, 23]: decreased expressions
- PD-L1 (B7H1) cell surface expression, OSCSCs [14, 23]: decreased expressions
- MHC class I expression on the cell surface, OSCSCs [14, 22]: decreases in MHC class I expression
- CD44 cell surface expression, PL-12 [15]: decreased expressions; also recorded: Decreased cell surface expression
- CD54 cell surface expression, PL-12 [15]: decreased expressions; also recorded: decreased the expression
- CD44 cell surface expression, MP2 ([16]; WIN 55,212-2, 48 h, mesylate): decreased expressions; also recorded: Decreased cell surface expression
- CD54 cell surface expression, MP2 ([16]; WIN 55,212-2, 48 h, mesylate): decreased expressions; also recorded: decreased the expression
- MHC class I cell surface expression, MP2 ([16]; WIN 55,212-2, 48 h, mesylate): decreased expressions; also recorded: decreased on MP2
- PD-L1 (B7H1) cell surface expression, MP2 ([16]; WIN 55,212-2, 48 h, mesylate): decreased expressions; also recorded: decreased in MP2
- extent of decrease in all surface receptor expressions, MP2 compared with PL-12 ([16]; WIN 55,212-2 treatments (FIG. 17F)): significantly greater than those seen in PL-12 tumor cells
- effect on radiotherapy / anti-proliferative effects of radiation (breast cancer cell lines): synergistically increased the effects of radiotherapy
- tumor burden, lung metastasis and tumor induced angiogenesis in vivo [17]: reduce tumor burden, lung metastasis and tumor induced angiogenesis

SMILES: CCCCCCC(C)(C)c1cc(O)c2c(c1)OC(C)(C)C1CCC(=O)CC21 (centres unmarked) [nabilone]
- effect on radiotherapy / anti-proliferative effects of radiation (breast cancer cell lines): failed to enhance anti-proliferative effects of radiation
